The source of these data is patent US5922558A, “Methods and compositions for generating chemiluminescence with a peroxidase” (Lumigen, Inc., priority 1997, dated 1999).

Entries after “also recorded” stand apart in the source; their conditions may differ.

In one assay the target is T1, peroxidase (Armoracia rusticana, UniProt P00433).
T1 construct: isoenzyme C dominant
T1 sequence (P00433 31-338): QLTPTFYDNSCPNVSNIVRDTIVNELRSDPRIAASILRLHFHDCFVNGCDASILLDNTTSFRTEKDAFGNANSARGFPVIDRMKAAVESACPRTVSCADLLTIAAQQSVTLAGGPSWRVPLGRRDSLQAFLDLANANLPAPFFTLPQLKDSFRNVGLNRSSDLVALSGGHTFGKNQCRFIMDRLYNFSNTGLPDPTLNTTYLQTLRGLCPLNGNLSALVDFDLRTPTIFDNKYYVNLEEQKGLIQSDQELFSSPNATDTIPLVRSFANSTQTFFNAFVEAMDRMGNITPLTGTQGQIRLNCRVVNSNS
Nature of the assay: Reaction with a peroxidase and a peroxide to produce chemiluminescence (general statements). The note with it: with versus without CTAB. Format: biochemical. How it is done:
Another aspect of the present invention is the use of compounds of any of formulas I-VI in a method to produce chemiluminescence by reaction with a peroxidase. Reaction of a compound of formula I-VI with a peroxidase and a peroxide in an aqueous buffer solution produces easily detected chemiluminescence. Light intensity reaches a maximum level within minutes at room temperature when the reaction is conducted at alkaline pH. The reaction is conducted optionally in the presence of an enhancer. [drawing 15] Cationic surfactants, including quaternary ammonium salt compounds such as CTAB, are advantageous for use in increasing the level of chemiluminescence emitted when certain compounds of the present invention are reacted with a peroxidase and a peroxide.

Assay [1] addresses T2, horseradish peroxidase (HRP) (Armoracia rusticana, UniProt P00433).
T2 sequence (P00433 31-353): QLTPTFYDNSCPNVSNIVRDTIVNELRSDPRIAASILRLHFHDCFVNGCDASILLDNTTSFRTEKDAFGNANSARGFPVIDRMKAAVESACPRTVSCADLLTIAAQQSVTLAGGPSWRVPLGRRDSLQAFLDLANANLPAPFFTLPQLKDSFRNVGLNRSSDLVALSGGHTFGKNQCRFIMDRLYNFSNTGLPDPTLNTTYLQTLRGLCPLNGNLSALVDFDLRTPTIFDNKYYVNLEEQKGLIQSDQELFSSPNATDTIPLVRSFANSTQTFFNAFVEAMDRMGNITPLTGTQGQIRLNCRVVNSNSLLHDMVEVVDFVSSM
Nature of the assay: Chemiluminescent detection of HRP in solution with reagent composition (tris buffer, urea peroxide, p-phenylphenol, EDTA, Tween 20). It is filed as biochemical. The procedure:
Reagent compositions comprising 0.055M tris buffer, pH 8.6, 0.25 mM urea peroxide, 0.05 mM p-phenylphe nol, 0.5 mM EDTA, 0.0125% Tween 20 and 3.3×10^-4 M acridan 5 were tested for production of chemiluminescence by reacting triplicate 100 μL aliquots with 10 μL of solutions of HRP in water containing between 1.4×10^-15 and 1.4×10^-19 moles of enzyme. […] The relation between chemiluminescence intensity at 15 min and amount of enzyme is depicted in FIG. 1.
Reagent compositions comprising 0.055M tris buffer, pH 8.6, 0.25 mM urea peroxide, 0.05 mM p-phenylphenol, 0.5 mM EDTA, 0.0125% Tween 20 and 3.3×10^-4 M acridan 13 were tested for production of chemiluminescence by reacting triplicate 100 μL aliquots with 10 μL of solutions of HRP in water containing between 1.4×10^-15 and 1.4×10^-19 moles of enzyme. […] The relation between chemiluminescence intensity and amount of enzyme is depicted in FIG. 2.
In the manner of Example 21, compositions containing each of compounds 1-4 and 6-12 and 14 were reacted with HRP at 25° C. Each produced easily measurable chemiluminescence discernable above the background measured in the absence of HRP.
The chemiluminescence profile of acridan phosphate 5 reacted with HRP is depicted in FIG. 3. Reaction of 100 μL of the reagent composition of Example 20 with 1.4×10^-15 mol of HRP at 25° C. caused an instant rise in light emission which achieved maximum intensity in ca. 5 min.
Reagent compositions comprising 0.01M tris buffer, pH 8.0, 0.5 mM urea peroxide, 0.1 mM p-phenylphenol, 1 mM EDTA, 0.025% Tween 20 and 5×10^-5 M acridan 37 were tested for production of chemiluminescence by reacting triplicate 100 μL aliquots with 10 μL of HRP in the range 1.4×10^-14 to 1.4×10^-19 moles. […] The relation between chemiluminescence intensity and amount of enzyme is depicted in FIG. 4.
A reagent composition (40 μL) comprising 0.01M tris buffer, pH 8.0, 0.5 mM urea peroxide, 0.1 mM p-phenylphenol, 1 mM EDTA, 0.025% Tween 20 and 5×10^-5 M acridan 38 was reacted with 1 μL of a solution containing 1.4×10^-15 moles of HRP. […] The chemiluminescence time profile is depicted in FIG. 5.
Reagent compositions comprising 0.01M tris buffer, pH 8.0, 0.5 mM urea peroxide, 0.1 mM p-phenylphenol, 1 mM EDTA, 0.025% Tween 20 and 5×10^-5 M acridan 39 were tested for production of chemiluminescence by reacting triplicate 100 μL aliquots with 10 μL of HRP in the range 1.4×10^-15 to 1.4×10^-20 moles. […] The relation between chemiluminescence intensity and amount of enzyme is depicted in FIG. 6.
A reagent composition (100 μL) comprising 0.01M tris buffer, pH 8.0, 0.5 mM urea peroxide, 0.1 mM p-phenylphenol, 1 mM EDTA, 0.025% Tween 20 and 5×10^-5 M acridan 40 was reacted with 10 μL of a solution containing 1.4×10^-15 moles of HRP.
A reagent composition (100 μL) comprising 0.01M tris buffer, pH 8.0, 0.5 mM urea peroxide, 0.1 mM p-phenylphenol, 1 mM EDTA, 0.025% Tween 20 and 5×10^-5 M acridan 50 was reacted with 2.5 μL of a solution containing 3.5×10^-16 moles of HRP. […] The chemiluminescence time profile is depicted in FIG. 7.
Reagent compositions comprising 0.055M tris buffer, pH 8.6, 0.25 mM urea peroxide, 0.05 mM p-phenylphenol, 0.5 mM EDTA, 0.0125% Tween 20, 1 mM CTAB and 6.6×10^-4 M acridan 43 were tested for production of chemiluminescence by reacting triplicate 100 μL aliquots with 10 μL of solutions of HRP containing between 1.4×10^-15 and 1.4×10^-19 moles of HRP. The relation between chemiluminescence intensity at 15 min and amount of enzyme is depicted in FIG. 8.
Reagent compositions comprising 0.055M tris buffer, pH 8.6, 0.25 mM urea peroxide, 0.05 mM p-phenylphenol, 0.5 mM EDTA, 0.0125% Tween 20, 1 mM CTAB and 6.6×10^-4 M compound 46 alone or with 50 μM DBA were tested for production of chemiluminescence by reacting a 100 μL aliquot with 3.5×10^-15 moles of HRP.

The target of assay [2] is T3, sheep anti-mouse-HRP conjugate (Armoracia rusticana, UniProt P00433).
T3 construct: purchased Boehringer-Mannheim
T3 sequence (P00433 31-338 limits assumed): T1 sequence (P00433 31-338)
In words: Western blot assay of β-galactosidase via an HRP-labeled antibody with chemiluminescent reagent, X-ray film. The note with it: for Western blot result compared with reagent containing compound 5: both PVDF and nitrocellulose membranes. The source says: Compositions of the present invention were used to detect and quantify a protein, β-galactosidase (β-gal) in a Western blot with an HRP-labeled antibody on a polyvinylidene difluoride (PVDF) membrane. Dilutions of β-gal containing 5000, 1000, 180, 30 and 5 pg, respectively, of protein were electrophoresed and transferred to PVDF membranes (Millipore, Bedford, Mass.). The membranes were blocked with 1% non-fat milk in T-TBS (0.05% Tween 20 in TBS; TBS is 50 mmol/L Tris-HCl, pH 7.4, 0.15 mol/L NaCl) and then reacted sequentially with a 1:1500 dilution of mouse anti-β-gal (Boehringer-Mannheim, Indianapolis) and 1:600 dilution of sheep anti-mouse-HRP conjugate (Boehringer-Mannheim). The membranes were washed in T-TBS and soaked for 3 min with a reagent comprising 0.055M tris buffer, pH 8.6 containing 0.66 mM acridan phosphate 5, 0.05 mM p-phenylphenol, 0.25 mM urea peroxide, 0.5 mM EDTA, 0.0125% Tween 20. The membranes were placed between transparent plastic sheets and exposed to X-ray film. […] The light produced led to intense emission which could be imaged for several hours.
A Western blot assay according to the procedure in the previous example was performed using nitrocellulose membrane (Schleicher & Schuell, Keene, N.H.) as the solid phase. β-Galstandards in the range of 5000-5 pg were used. The detection reagent of the previous example permitted detection to be performed over several hours.

Where [3] appears, read: 0.01M tris pH 8.0, 0.5 mM urea peroxide, 0.1 mM p-phenylphenol, 5×10^-5 M acridan.
Where [4] appears, read: 0.055M tris pH 8.6, 0.25 mM urea peroxide, 0.05 mM p-phenylphenol, 3.3×10^-4 M compound, HRP 1.4×10^-15 to 1.4×10^-19 moles.

In the case of `CC(=C(OP(=O)(O)O)Sc1ccccc1)c1ccc2cc(O)ccc2c1` [Compound 43], at peroxidase, the “change of light intensity when CTAB was included in the reaction mixture” value was “increased more than ten-fold”.

Regarding `CCOP(=O)(OCC)OC(Oc1ccccc1)=C1c2ccccc2N(C)c2ccccc21` [Compound 37], in assay [1] (setting [3]), the “production of chemiluminescence on reaction with HRP” value (“production of chemiluminescence” below) is listed as “Light production ensued upon mixing”.

As to `CN1c2ccccc2C(=C(OP(=O)(O)O)Sc2ccc(Cl)cc2)c2ccccc21` [Compound 12], the “Western blot result compared with reagent containing compound 5” value in assay [2] is on record as “qualitatively the same result”.

Consider `CN1c2ccccc2C(=C(Oc2ccccc2)OP(=O)(O)O)c2ccccc21` [Compound 1], for which the “Western blot result compared with reagent containing compound 5” value in assay [2] is reported as “qualitatively the same result”.

With `CC(=O)OC(Oc1ccccc1)=C1c2ccccc2N(C)c2ccccc21` [Compound 39], in assay [1] (setting [3]), the “production of chemiluminescence” value was “Light production ensued upon mixing”. For the same molecule, the “time to maximum chemiluminescence intensity” value (“time” for short) in assay [1] (100 μL reagent, 0.01M tris pH 8.0, 5×10^-5 M acridan, HRP 1.4×10^-15 to 1.4×10^-20 moles) is recorded as 30 min.

As for `CCOP(=O)(OCC)OC(Sc1ccccc1)=C1c2ccccc2N(C)c2ccccc21` [Compound 38], the “production of chemiluminescence” value in assay [1] (setting [3]) is “Light production ensued upon mixing”. For the same molecule, the “time” value in assay [1] (40 μL reagent, 0.01M tris pH 8.0, 5×10^-5 M acridan, 1.4×10^-15 moles HRP, 25° C.) stood at 1 min.

Consider `O=P(O)(O)OC(Sc1ccccc1)=C(c1ccccc1)c1ccccc1` [Compound 46], for which, in assay [1] (0.055M tris pH 8.6, 1 mM CTAB, 6.6×10^-4 M compound alone or with 50 μM DBA, 3.5×10^-15 moles HRP), the “effect of triplet energy acceptor DBA on chemiluminescence” value is “enhancement of chemiluminescence”. Besides, the “change of light intensity when CTAB was included in the reaction mixture” value on peroxidase is “increased more than ten-fold”.

Take `CN1c2ccccc2C(=C(OP(=O)(O)O)Sc2ccc3ccccc3c2)c2ccccc21` [Compound 13]: the “production of chemiluminescence” value in assay [1] (setting [4]) is “Light production ensued upon mixing”. In assay [2], the “Western blot result compared with reagent containing compound 5” value is “qualitatively the same result”.

Consider `COC(Sc1ccccc1)=C1c2ccccc2N(C)c2ccccc21` [Compound 50], for which the “production of chemiluminescence” value in assay [1] (setting [3]) is reported as “Light production ensued upon mixing”. Besides, the “time” value in assay [1] (100 μL reagent, 0.01M tris pH 8.0, 5×10^-5 M acridan, 3.5×10^-16 moles HRP, 25° C.) worked out at 7 min.

As to `CN1c2ccccc2C(=C(OP(=O)(O)O)Sc2ccccc2)c2ccccc21` [Compound 5], in assay [1] (setting [4]), the “production of chemiluminescence” value is “Light production ensued upon mixing”. Moreover, the “time” value in assay [1] (100 μL reagent of Example 20 (0.055M tris pH 8.6, 3.3×10^-4 M acridan), 1.4×10^-15 mol HRP, 25° C.) is “ca. 5 min”. In assay [2] (0.66 mM compound, tris pH 8.6), the “duration over which emission could be imaged, Western blot, PVDF membrane” value is reported as “several hours”. Further, the “detection of β-gal in Western blot, PVDF membrane” value in assay [2] (β-gal 5000, 1000, 180, 30 and 5 pg, 0.66 mM compound, 30 s exposure after 14 min) is listed as “detection of β-gal; also recorded: detected”.

Regarding `CC(=O)OC(Sc1ccccc1)=C1c2ccccc2N(C)c2ccccc21` [Compound 40], the “production of chemiluminescence” value in assay [1] (setting [3]) is recorded as “Light production ensued upon mixing”. In assay [1] (100 μL reagent, 0.01M tris pH 8.0, 5×10^-5 M acridan, 1.4×10^-15 moles HRP), the “time” value is reported as 7 min.
